The values below come from patent US6391924B1, “Taurine derivatives useable in the treatment of ophthalmic disorders” (priority 1997, dated 2002).

Structures are written as SMILES.

One data set is described as follows: solubility in water. Type of data set: physicochemical. As for the experimental part:
The all-trans isomer of retinyliden tauret (i.e., all-trans-3,7-dimethyl-9-(2,6,6-trimehyl-1-cyclohexen-1-yl)-2,4,6,8-nonatetraen-1-imido-(N-sulfonic acid) prepared in this example has the following characterization: a) Absorbency Max […]., b) Extinction Coefficient at […] is 40200, c) upon protonation the absorbency Max shifts to 444 um, d) the Extinction Coefficient at 444 um is 40050 e) Melting Point is 115 C., -116° C. and soluability in water is 200 mg/ml.

A further data set concerns frog retinas. The note with it: in vitro; cited from earlier work.

Regarding `CC1=C(/C=C/C(C)=C/C=C/C(C)=C/C=NCCS(=O)(=O)O)C(C)(C)CCC1` (single isomer, unassigned) [all-trans isomer of retinyliden tauret, all-trans-3,7-dimethyl-9-(2,6,6-trimehyl-1-cyclohexen-1-yl)-2,4,6,8-nonatetraen-1-imido-(N-ethanesulfonic acid)], the soluability in water in “solubility in water” was found to be 200 mg/mL. For the molecule `CC(C=CC1=C(C)CCCC1(C)C)=CC=CC(C)=CC=NCCS(=O)(=O)O` [retinyliden tauret, 3,7-dimethyl-9-(2,6,6-trimehyl-1-cyclohexen-1-yl)-2,4,6,8-nonatetraen-1-imido-(N-ethanesulfonic acid)], the photoprotective effects entry in the data set on frog retinas is given as “some photoprotective effects”.
